Results reported in US20130224223A1, “Compositions and Methods for Treating Neurological Disorders” (GEORGIA REGENTS UNIVERSITY, priority 2007, published 2013).

Assays:
[1] = system: cortical slices; test: [3H]GABA release from prefrontal cortical slices; type: cell-based, mice; conditions: 20 mM KCl; for depolarization-evoked [3H]GABA release: substance alone, no other exogenous agent, AG1478/AG879 5 mM [sic]
Procedure: FIG. 2A is a line graph of [^3H]GABA release fraction/total fraction versus time (mins). Cortical slices were preloaded with [^3H]GABA for 30 min in the presence of b-alanine (1 mM), an inhibitor of [^3H]GABA uptake by glial cells, aminooxyacetic acid (0.1 mM), an inhibitor of GABA degradation, and nipecotic acid (1 mM), an inhibitor of the GABA transporter in neurons. Basal and depolarization (20 mM KCl)-evoked release of [^3H]GABA were monitored sequentially. Controls (open circles) and NRG1 (closed circles). FIG. 2B is a line graph of percent [^3H]GABA release versus NRG1 concentration (nM). Basal (open circles) K+ evoked (closed circles). […] FIG. 2D is a line graph of cumulative counts versus mIPSC amplitude (pA). Controls (open circles) and NRG1 (closed circles). FIG. 2E is a line graph of cumulative counts versus mIPSC interevent interval (ms). Controls (open circles) and NRG1 (closed circles). FIG. 2F is a bar graph of mIPSC (percent) in control and NRG1 treated pyramidal neurons in prefrontal cortical slices (n=12). Amplitude (clear) and Frequencies (hatched). FIG. 2G is a bar graph of percent eIPSC amplitude in prefrontal cortical slices treated with NRG1 versus control or washout. n=12, *p<0.01. Representative eIPSCs of control, NRG1-treated, or NRG1-treated/washed slices are shown on top. FIG. 2H is a line graph of percent eIPSC amplitude versus NRG1 (nM). n=6, *p<0.05, **p<0.01. FIG. 2I is a bar graph of K^+ evoked [^3H]GABA release (percent) (left axis, clear rectangles) and eIPSC amplitude (percent) (right axis, hatched rectangles) in prefrontal cortical slices treated with NRG1, denature NRG1, or BDNF. n=8 for [^3H]GABA release; for eIPSCs, n=6 for control, NRG1, and denatured NRG1, and n=4 for BDNF. *p<0.05, #p<0.05; **p<0.05, ##<0.01.
NRG1 may regulate GABAergic neurotransmission. To test this hypothesis, the effects of NRG1 on GABA release in cortical slices were determined by both biochemical and electrophysiological approaches. Basal [^3H]GABA release was low, at a rate of 3.75±0.35% (n=8) of total radioactivity per 10 min (FIG. 2A). Treatment of slices with 20 mM KCl, a condition known to depolarize neurons, increased [^3H]GABA release by 2.5-3.5 folds within 10 min (FIG. 2A). NRG1 had no effect on basal [^3H]GABA release; by contrast, it increased depolarization-evoked GABA release in a dose-dependent manner (FIG. 2B). […] Furthermore, the NRG regulation remained unchanged in the presence of antagonists of metabotropic glutamate receptors, cholinergic receptors, serotonin receptors, adrenergic receptors and/or dopamine receptors. As a control, BDNF decreased depolarization-evoked GABA release and eIPSCs in cortical slices, in agreement with earlier studies (Canas, et al., Brain Res, 1016:72-78 (2004); Frerking, et al., J Neurophysiol, 80:3383-3386 (1998)).

[2] = system: prefrontal cortical slices; test: eIPSC recording in prefrontal cortical slices; type: cell-based, mice; conditions: for evoked IPSCs (eIPSCs): substance alone, no other exogenous agent, AG1478/AG879 5 mM [sic]
Procedure: Transverse prefrontal cortical slices (0.3 mm) were prepared from P28-P36 mice using a Vibroslice (Leica VT 10005) in the ice-cold solution, which contained 2.5 mM KCl, 1.25 mM NaH2PO4, 10 mM MgSO4, 0.5 mMCaCl2, 26 mM NaHCO3, 10 mM glucose, and 230 mM sucrose. Slices were allowed to recover for at least 2 hr in ACSF (1 hr at 34° C. followed by 1 hr at 22° C.) in a solution containing 126 mM NaCl, 2.5 mM KCl, 1.25 mM NaH2PO4, 2 mM MgSO4, 2 mM CaCl2, 26 mM NaHCO3, and 10 mM glucose. Slices were placed in the recording chamber and superfused (1.5 ml/min) with ACSF at 34° C. All solutions were saturated with 95% O2/5% CO2. Neurons were visualized with an IR-sensitive CCD camera with a 403 water-immersion lens (Zeiss, Axioskop2 Fsplus) and recorded using whole-cell voltage-clamp techniques (MultiClamp 7008 Amplifier, Digidata 1320A analog-to-digital converter) and pClamp 9.2 software (Axon Instruments). Glass pipettes were filled with the solution containing 125 mM Cs-gluconate, 10 mM CsCl, 1 mM MgCl2, 10 mM HEPES, 1 mM EGTA, 0.1 mM CaCl2, 10 mM sodium phosphocreatine, 4 mM Mg-ATP, 0.3 mM GTP, 0.2 mM leupeptin, and 5 mM lidocaine N-ethylchloride (QX314) (pH 7.2, with the osmolarity adjusted to 280 mOsm with sucrose). The resistance of pipettes was 2-3 MΩ For mIPSC recording, QX314 was omitted in the pipette filling solution, whereas […] was included in the superfusing solution. eIPSCs were generated with a two-concentric bipolar stimulating electrode ([…] pole separation; FHC, ME) positioned about […] from the neuron under recording. Single or paired pulses of 0.2 ms were delivered at 0.1 Hz and synchronized using a Mater-8 stimulator (A.M.P.I). The holding potential for both mIPSCs and eIPSCs was −65 mV. All experiments were done at 34° C. in the presence of 6-cyano-7-nitroquinoxaline-2,3-dione (CNQX, […]) and AP-5 ([…]) to block AMPA/NMDA receptors. Data were collected when series resistance fluctuated within 15% of initial values (8-15 MU), they were filtered at 2 kHz, and they were sampled at 10 kHz.

[3] = system: PV-Cre;ErbB4−/− and PV-Cre;ErbB4+/+ mice; test: pre-pulse inhibition (PPI) test; type: in vivo; conditions: 3 mg/kg
Source text: FIG. 16A is a bar graph showing the baseline startle response (startle amplitude) for PV-Cre;ErbB4+/+ (white bar, n=7) and PV-Cre;ErbB4−/− (hatched bar, n=6) mice under no stimulus, 70 dB (−) and startle stimulus, 120 dB (+), respectively; P>0.05). FIG. 16B is bar graph showing pre-pulse inhibition (%) for PV-Cre;ErbB4+/+ (white bar, n=7) and PV-Cre;ErbB4−/− (hatched bar, n=6) mice at three different levels of pre-pulse (75 dB, 80 dB, 85 dB), P=0.004. PPI=100−100%×(PPx/P120), in which PPx was the amplitude of the startle response after each pre-pulse and P120 was basal startle amplitude. FIG. 16C is a bar graph showing pre-pulse inhibition (%) for PV-Cre;ErbB4+/+ and PV-Cre;ErbB4−/− mice at three different levels of pre-pulse (75 dB, white bars) (80 dB, hatched bars), (85 dB, stippled bars), treated with vehicle or 3 mg/kg diazepam. Repeated measures, * P<0.05, # P=0.573. For vehicle treatment, n=10 and 12 for PV-Cre;ErbB4−/− mice and PV-Cre;ErbB4+/+ littermates, respectively; for diazepam treatment, n=9 and 11 for PV-Cre; ErbB4−/− and PV-Cre;ErbB4+/+, respectively. […]

| Molecule | depolarization-evoked [3H]GABA release [1] | NRG1-enhanced evoked GABA release ([1]; substance given with exogenous NRG1) | evoked IPSCs (eIPSCs) [2] | NRG1 potentiation of eIPSCs ([2]; substance given with exogenous NRG1 (5 nM)) | PPI in PV-Cre;ErbB4−/− mice ([3]; acute administration, mutant mice) | PPI in control mice ([3]; after 30-min treatment, PV-Cre;ErbB4+/+ littermates) |
| --- | --- | --- | --- | --- | --- | --- |
| CC(C)(C)c1cc(/C=C(\C#N)C(N)=S)cc(C(C)(C)C)c1O [AG879] | no detectable effect | no detectable effect | no detectable effect | no detectable effect | – | – |
| CN1C(=O)CN=C(c2ccccc2)c2cc(Cl)ccc21 [diazepam] | – | – | – | – | significantly enhanced | no effect |
| BDNF: BDNF, a gift from Regeneron; used as a control (protein, UniProt P23560 19-247, looked up) Neurotrophic factor BDNF …: APMKEANIRGQGGLAYPGVRTHGTLESVNGPKAGSRGLTSLADTFEHVIEELLDEDQKVRPNEENNKDADLYTSRVMLSSQVPLEPPLLFLLEEYKNYLDAANMSMRVRRHSDPARRGELSVCDSISEWVTAADKKTAVDMSGGTVTVLEKVPVSKGQLKQYFYETKCNPMGYTKEGCRGIDKRHWNSQCRTTQSYVRALTMDSKKRIGWRFIRIDTSCVCTLTIKRGR | decreased | – | decreased | – | – | – |
